Source: the supplement of paper PMC10307832

Legend:
Assay in all cases: relative viability (nuclei count vs DMSO), 5 days (fraction); higher = more cells survive
[1] = compound: Cn1cc(-c2cnn3c(N)c(Br)c([C@@H]4CCCNC4)nc23)cn1 + Cc1nc(NC(=O)N2CCC[C@H]2C(N)=O)sc1-c1ccnc(C(C)(C)C(F)(F)F)c1 [Alpelisib] (partner 2 µM)
Outline: (§1)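 Lung cancer cell lines in 1536-well plates were dosed by pin tool the day after seeding, either with one drug alone or with a fixed anchor-drug dose plus five library-drug doses (not always all listed) in √10 steps. After 5 days, cells were fixed and their nuclei stained in one step (final 0.05% Triton X-100, 1% formaldehyde, 1 ug/ml Hoechst), then counted on 4× images. Relative viability is the nuclei count in treated wells divided by that in vehicle wells. Values are medians of duplicate plates.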

[2] = compound: Cn1cc(-c2cnn3c(N)c(Br)c([C@@H]4CCCNC4)nc23)cn1 + Cc1nc(Nc2ncc(C(=O)Nc3c(C)cccc3Cl)s2)cc(N2CCN(CCO)CC2)n1 [Dasatinib] (partner 0.075 µM)
Outline: as §1

[3] = compound: Cn1cc(-c2cnn3c(N)c(Br)c([C@@H]4CCCNC4)nc23)cn1 + CC(=O)c1c(C)c2cnc(Nc3ccc(N4CCNCC4)cn3)nc2n(C2CCCC2)c1=O [Palbociclib] (partner 0.5 µM)
Outline: as §1

[4] = compound: Cn1cc(-c2cnn3c(N)c(Br)c([C@@H]4CCCNC4)nc23)cn1 + CC(C)C[C@H](NC(=O)[C@H](Cc1ccccc1)NC(=O)c1cnccn1)B(O)O [Bortezomib] (partner 0.002 µM)
Outline: as §1

Cell Line | relative viability ([1]; first compound 0.05 µM) | relative viability ([1]; first compound 0.1581 µM) | relative viability ([1]; first compound 0.5 µM) | relative viability ([1]; first compound 5 µM) | relative viability ([2]; first compound 0.05 µM) | relative viability ([2]; first compound 0.1581 µM) | relative viability ([2]; first compound 0.5 µM) | relative viability ([2]; first compound 1.581 µM) | relative viability ([2]; first compound 5 µM) | relative viability ([3]; first compound 0.05 µM) | relative viability ([3]; first compound 0.1581 µM) | relative viability ([3]; first compound 0.5 µM) | relative viability ([3]; first compound 1.581 µM) | relative viability ([3]; first compound 5 µM) | relative viability ([4]; first compound 0.05 µM) | relative viability ([4]; first compound 0.1581 µM) | relative viability ([4]; first compound 0.5 µM) | relative viability ([4]; first compound 5 µM) | relative viability ([1]; first compound 1.581 µM) | relative viability ([4]; first compound 1.581 µM)
NCI-H441 | 0.859 | 1.15 | 0.856 | 0.852 | 0.589 | 0.736 | 0.476 | 0.487 | 0.601 | 0.191 | 0.189 | 0.199 | 0.172 | 0.193 | 1.05 | 0.585 | 0.87 | 0.448 | – | –
NCI-H1793 | 0.773 | 0.878 | 0.709 | 0.58 | 0.449 | 0.416 | 0.306 | 0.385 | 0.184 | 0.349 | 0.281 | 0.32 | 0.301 | 0.31 | – | – | – | – | 0.666 | –
NCI-H23 | 0.741 | 0.717 | 0.613 | 0.227 | 0.851 | 0.999 | 0.687 | 0.585 | 0.18 | 0.568 | 0.496 | 0.552 | 0.34 | 0.25 | 1.08 | 1.28 | 1.01 | 0.239 | 0.667 | 0.473
HARA | 0.875 | 0.701 | 0.792 | 0.619 | 0.37 | 0.316 | 0.332 | 0.252 | 0.157 | 0.246 | 0.264 | 0.322 | 0.299 | 0.158 | 1.19 | 1.16 | 1.18 | 0.224 | 0.806 | 0.764
NCI-H1792 | 0.883 | 0.887 | 0.411 | 0.488 | – | 0.852 | 0.624 | 0.933 | 0.425 | – | 0.777 | 0.663 | 0.668 | 0.617 | 0.801 | 1.1 | 0.703 | 0.371 | 0.408 | 0.551
NCI-H1703 | 0.374 | 0.318 | 0.259 | 0.139 | – | – | – | – | – | – | – | – | – | – | 0.231 | 0.261 | 0.19 | 0.138 | 0.161 | 0.132
NCI-H2342 | – | – | – | – | 0.31 | 0.3 | 0.345 | 0.336 | 0.28 | 0.531 | 0.55 | 0.446 | 0.56 | 0.507 | – | – | – | – | – | –
CAL-12T | 1.27 | 1.29 | 0.937 | 0.228 | 0.467 | 0.427 | 0.26 | 0.299 | 0.174 | 0.505 | 0.569 | 0.476 | 0.189 | 0.202 | 0.728 | 0.899 | 0.775 | 0.315 | 0.716 | 0.718
NCI-H727 | 0.575 | 0.535 | 0.534 | 0.361 | 0.29 | 0.292 | 0.333 | 0.403 | 0.287 | 0.646 | 0.686 | 0.589 | 0.581 | 0.642 | 0.818 | 0.887 | 0.901 | 0.412 | 0.412 | 0.623
NCI-H2085 | 1.01 | 1.04 | 0.955 | 0.769 | 0.239 | 0.235 | 0.229 | 0.24 | 0.203 | 0.46 | 0.521 | 0.51 | 0.471 | 0.385 | 1.12 | 1.13 | 1.08 | 0.909 | 0.868 | 0.813
NCI-H1395 | 1.18 | 0.685 | 0.874 | 0.435 | 0.397 | 0.463 | 0.399 | 0.368 | 0.351 | 0.628 | 0.492 | 0.567 | 0.421 | 0.419 | – | – | – | – | 0.66 | –
NCI-H1648 | – | – | – | – | – | – | – | – | – | 0.208 | 0.281 | 0.254 | 0.305 | 0.259 | – | – | – | – | – | –
NCI-H460 | 0.59 | 0.459 | 0.509 | 0.0851 | 0.533 | 0.437 | 0.483 | 0.317 | 0.144 | 0.227 | 0.144 | 0.0866 | 0.0886 | 0.0189 | 0.993 | 1.74 | 0.792 | 0.529 | 0.155 | 0.401
A549 | 0.659 | 0.822 | 0.653 | 0.495 | – | – | – | – | – | – | – | – | – | – | – | – | – | – | 0.752 | –
IA-LM | 0.757 | 1.05 | 0.574 | 0.589 | – | – | – | – | – | – | – | – | – | – | 0.823 | 0.886 | 0.678 | 0.32 | 0.591 | 0.532
EKVX | 0.908 | 1.05 | 0.91 | 0.753 | 0.376 | 0.549 | 0.54 | 0.496 | 0.578 | 0.368 | 0.376 | 0.383 | 0.413 | 0.355 | 1.06 | 1.16 | 0.987 | 1.07 | 0.694 | 0.836
ChaGo-K-1 | – | – | – | – | 0.565 | 0.564 | 0.606 | 0.478 | 0.353 | 0.956 | 0.98 | 0.911 | 0.869 | 0.97 | 0.909 | 1.01 | 0.826 | 0.682 | – | 0.717
NCI-H1755 | 1.03 | 1.05 | 0.817 | 0.879 | 0.4 | 0.42 | 0.42 | 0.407 | 0.253 | 0.467 | 0.494 | 0.459 | 0.449 | 0.425 | 1.04 | 1.03 | 0.952 | 0.711 | 0.873 | 0.879
NCI-H2228 | 0.794 | 1.15 | 0.87 | 0.372 | 0.572 | 0.66 | 0.459 | 0.294 | 0.241 | 1.03 | 0.872 | 0.541 | 0.393 | 0.252 | 1.1 | 1.1 | 0.943 | 0.521 | 0.541 | 0.705
NCI-H2087 | 1.29 | 1.17 | 1.21 | 0.938 | 0.856 | 0.936 | 1.09 | 0.835 | 0.809 | 0.222 | 0.292 | 0.235 | 0.241 | 0.177 | 0.893 | 0.876 | 0.872 | 0.911 | 0.98 | 0.622
